Reference: US7368576B2, “Dipeptidyl peptidase IV inhibitors and their uses as anti-cancer agents” (Probiodrug AG, priority 2001, dated 2008)

Assays:
[1] = molecular target: T1, Prolidase from porcine kidney (Sus scrofa, UniProt A0A5G2QQV1); assay: Cross reacting enzymes: prolidase; type: biochemical; conditions: Ile-Pro-OH 0.5 mM, pH 7.6; read-out: IC50 against prolidase
T1 construct: Prolidase from porcine kidney; purchased ICN Biomedicals, Eschwege, Germany; host or cells: porcine kidney
T1 sequence (A0A5G2QQV1 1-463): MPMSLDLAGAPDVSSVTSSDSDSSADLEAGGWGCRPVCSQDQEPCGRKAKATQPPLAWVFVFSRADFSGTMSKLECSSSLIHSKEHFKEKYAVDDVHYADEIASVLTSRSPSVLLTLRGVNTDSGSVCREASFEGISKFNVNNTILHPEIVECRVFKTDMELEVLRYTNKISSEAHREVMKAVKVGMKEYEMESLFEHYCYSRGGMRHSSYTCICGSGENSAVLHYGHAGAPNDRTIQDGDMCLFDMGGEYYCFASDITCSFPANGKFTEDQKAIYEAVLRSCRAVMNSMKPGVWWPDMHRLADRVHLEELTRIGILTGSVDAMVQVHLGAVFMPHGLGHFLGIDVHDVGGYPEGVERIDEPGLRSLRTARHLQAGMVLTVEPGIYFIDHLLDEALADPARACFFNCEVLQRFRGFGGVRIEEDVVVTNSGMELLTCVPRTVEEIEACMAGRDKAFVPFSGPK
Protocol: Prolidase from porcine kidney (ICN Biomedicals, Eschwege, Germany) was solved (1 mg/ml) in assay buffer (20 mM NH4(CH3COO)2, 3 mM MnCl2, pH 7.6). In order to get a fully active enzyme the solution was incubated for 60 min at room temperature.
450 μl glutaminyl pyrrolidine or glutaminyl thiazolidine in an concentration range of 5*10^−3 M-5*10^−7 M were admixed with 500 μl buffer solution (20 mM […], pH 7.6) and 250 μl Ile-Pro-OH (0.5 mM in the assay mixture). The assay mixture was pre-incubated at 30° C. for 5 min. After pre-incubation, 75 μl Prolidase (1:10 diluted in assay buffer) were added and measurement was performed at 30° C. and λ=220 nm for 20 min using a UV/Vis photometer, UV1 (Thermo Spectronic, Cambridge, UK).
The IC 50-values were calculated using Graphit 4.0.15 (Erithacus Software, Ltd., UK).

[2] = molecular target: T2, dipeptidyl peptidase IV from porcine kidney (Sus scrofa, UniProt P22411); assay: Ki determination, DPIV inhibition (glycylprolyl-4-nitroaniline); type: biochemical; conditions: HEPES pH7.6, 30° C.
T2 construct: dipeptidyl peptidase IV from porcine kidney; from tissue; host or cells: porcine kidney
T2 sequence (P22411 whole entry): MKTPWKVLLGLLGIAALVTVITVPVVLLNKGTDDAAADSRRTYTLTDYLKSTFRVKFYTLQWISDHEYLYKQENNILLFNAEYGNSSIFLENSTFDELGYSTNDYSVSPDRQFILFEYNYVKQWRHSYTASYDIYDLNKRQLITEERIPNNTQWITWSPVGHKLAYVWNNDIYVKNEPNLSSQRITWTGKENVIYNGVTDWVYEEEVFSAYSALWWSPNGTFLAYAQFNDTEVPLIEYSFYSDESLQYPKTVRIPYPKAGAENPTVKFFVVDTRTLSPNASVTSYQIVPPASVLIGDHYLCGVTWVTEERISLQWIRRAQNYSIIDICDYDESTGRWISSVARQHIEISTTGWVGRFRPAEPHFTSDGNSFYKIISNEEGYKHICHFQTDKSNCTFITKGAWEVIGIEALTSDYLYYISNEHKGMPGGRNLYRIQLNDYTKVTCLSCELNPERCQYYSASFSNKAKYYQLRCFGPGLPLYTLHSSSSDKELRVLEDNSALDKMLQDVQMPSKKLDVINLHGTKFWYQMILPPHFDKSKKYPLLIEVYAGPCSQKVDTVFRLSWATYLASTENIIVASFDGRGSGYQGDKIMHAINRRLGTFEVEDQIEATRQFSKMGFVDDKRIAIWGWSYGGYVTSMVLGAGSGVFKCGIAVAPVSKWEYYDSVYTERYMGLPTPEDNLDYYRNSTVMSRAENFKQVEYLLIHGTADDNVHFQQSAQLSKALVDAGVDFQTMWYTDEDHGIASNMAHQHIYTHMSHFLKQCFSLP

NC(=O)CCC(N)C(=O)N1CCCC1 (centres unmarked) [Gln-Pyrr, glutaminyl pyrrolidine]
IC50 [1]: 340 µM | Ki [2]: 2.26 µM
